For data set [1], the system named is bEND3 cells. The data set can be described thus: Immunostaining of occludin in OGD-treated bEND3 cells (confocal). Type of data set: cell-based, Mouse. On the procedure: (§1) Cell culture. Mouse brain microvascular endothelial cells bEND3 (American Type Culture Collection) were grown as a monolayer in DMEM with 15% fetal bovine serum (FBS), 100 U/ml penicillin and 100 μg/ml streptomycin at 37° C. in a humidified incubators with 5% CO2 and 95% room air. The cells were subcultured into 60 mm dishes coated with type I collagen (Nakamuta et al., 2005) and allowed to grow to confluence before exposure to OGD for 2 h. After OGD treatment, cell toxicity was measured by lactate dehydrogenase (LDH) assay using a CytoTox 96 Non-Radioactive Cytotoxicity Assay Kit (Promega). Besides endothelial cells, we also tested the effect of OGD on MMP-2/9 secretion in two mouse neural cell lines, C8-D1A (astrocyte) and […]. Both cell lines were purchased from American Type Culture Collection. C8-D1A cells and SH-SY5Y cells were cultured in DMEM or DMEM/F12 (1:1) (Sigma) containing 10% FBS, 100 U/ml penicillin and 100 μg/ml streptomycin, respectively. These cells were allowed to grow to 80-90% confluence before exposure to 2-h OGD treatment.
(§2) OGD treatment. To mimic acute ischemia-like conditions in vitro, bEND3 cells were exposed to OGD for 2 h as we described previously (Furuichi et al., 2005). […] The oxygen concentration was below 0.2% as monitored by an oxygen analyzer (Sable Systems). […]

Data set [2] deals with bEND3 cells. Briefly: OGD-induced occludin degradation in bEND3 cells, Western blot of total cellular extracts. Type of data set: cell-based, Mouse. As for the experimental part: as §1, §2
For orientation: A western blot detects proteins with antibodies after separation by electrophoresis.

The subject of data set [3] is bEND3 cells. The data set can be described thus: OGD-induced claudin-5 redistribution between subcellular fractions, Western blot. Type of data set: cell-based, Mouse. The settings on record: SB-3CT, 2 h OGD; Western blot of subcellular fractions. On the procedure: OGD treatment. To mimic acute ischemia-like conditions in vitro, bEND3 cells were exposed to OGD for 2 h as we described previously (Furuichi et al., 2005). In brief, confluent bEND3 cells were subjected to an ischemic injury by transferring cultures to glucose free medium (DMEM without glucose) pre-equilibrated with 95% N2 and 5% CO2. Cells were then incubated in a humidified airtight chamber (Billups-Rothberg Inc.) equipped with an air lock and flushed with 95% N2 and 5% CO2 for 15 min. The chamber was then sealed and kept at 37° C. for another 105 min. The oxygen concentration was below 0.2% as monitored by an oxygen analyzer (Sable Systems). Control cultures were incubated with normal DMEM medium without FBS for 2 h at 37° C. in 95% air and 5% CO2. Immediately after OGD treatment, the conditioned media (CM) and cells were collected separately for further analyses.
Preparation of total cell lysate, subcellular fractions. To reveal a redistribution of MMP-2/9, Caveolin-1 (Cav-1) and TJ proteins in OGD-treated bEnd3 cells, three subcellular fractions including membranous, cytosolic, and cytoskeletal fractions were extracted using ProteoExtract Subcellular Proteome Extraction Kit (Calbiochem) according to manufacturer's instruction. […]

For data set [4] the following is noted: tPA thrombolysis, cited from earlier work.
In data set [5] the target is T1, occludin (UniProt Q61146).
T1 sequence: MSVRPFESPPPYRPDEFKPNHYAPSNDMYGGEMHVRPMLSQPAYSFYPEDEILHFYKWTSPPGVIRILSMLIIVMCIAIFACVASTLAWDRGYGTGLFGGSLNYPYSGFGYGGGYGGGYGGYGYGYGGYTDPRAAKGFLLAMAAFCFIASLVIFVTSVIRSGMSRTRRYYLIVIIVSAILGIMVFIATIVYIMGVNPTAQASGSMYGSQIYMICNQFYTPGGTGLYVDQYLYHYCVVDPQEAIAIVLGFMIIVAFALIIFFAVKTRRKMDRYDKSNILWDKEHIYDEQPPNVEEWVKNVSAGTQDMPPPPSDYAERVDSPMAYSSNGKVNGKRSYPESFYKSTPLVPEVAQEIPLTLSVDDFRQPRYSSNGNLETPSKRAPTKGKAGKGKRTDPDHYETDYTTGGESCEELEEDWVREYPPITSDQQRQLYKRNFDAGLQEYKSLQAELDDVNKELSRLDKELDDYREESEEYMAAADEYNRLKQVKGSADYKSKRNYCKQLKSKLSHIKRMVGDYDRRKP

“Also recorded” adds a separate entry of the source.

As to `O=S(=O)(CC1CS1)c1ccc(Oc2ccccc2)cc1` (centres unmarked) [SB-3CT], the “occludin immunostaining reduction in OGD-treated cells” value in data set [1] (SB-3CT pretreatment, 2 h OGD, confocal microscopy) is “completely inhibited occludin reduction in OGD-treated cells”. Besides, the “occludin immunostaining in control cells” value in data set [1] (SB-3CT-treated control cells vs vehicle-treated control cells) is on record as “slight stronger immunostaining (brighter fluorescence) for occludin”. In addition, in data set [2] (SB-3CT 10 μM, 2 h before and during 2 h OGD, Western blot, vs vehicle (DMSO) plus OGD), the “OGD-induced occludin degradation (occludin protein in total cellular extracts)” value was “completely abolished OGD-induced occludin reduction; also recorded: completely inhibited OGD-induced occludin degradation”. For the same compound, in data set [2] (SB-3CT-treated control cells compared to vehicle-treated cells (DMSO)), the “occludin level in control (non-OGD) bEND3 cells” value is “slight increase (not statistically significant) in occludin level”. The “OGD-induced claudin-5 redistribution between subcellular fractions” value in data set [3] is listed as “had no effect on its redistribution between subcellular fractions; also recorded: had no effect on OGD-induced claudin-5 redistribution”.

Take “tPA: tissue plasminogen activator, the only FDA-approved therapy for acute ischemic stroke”: the “mortality rate in stroke patients who have such bleeding” value in data set [4] (patients with symptomatic ICH) is 50%. In addition, the “increase in the incidence of symptomatic ICH” value in data set [4] (stroke patients) is recorded as 10 fold.

On to active MMP-9, for which the “occludin degradation in bEND3 extracts” value in data set [5] is on record as “active MMP-9-induced occludin degradation”.

Source of the values: patent US10591491B1, “Blood biomarker for early blood brain barrier disruption in ischemic stroke” (STC.UNM, priority 2011, dated 2020).
